Test systems include MALME-3M melanoma; NCI-H522 lung; OVCAR-4 ovarian; OVCAR-5 ovarian; SR leukemia; U251 CNS; UO-31 renal; HOP-92 NSCLC.
Holding throughout (assay): NCI-60 cell line screen, 48 h

The structures appear in SMILES notation.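 Exposure lasted 48 hours, with cells grown in 96-well plates and compounds tested at five concentrations. TGI denotes the concentration required for complete inhibition of growth.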 Bounds are passed on as bounds.

With `Nc1nc2ncc(CNc3ccc(C(=O)NC(CCC(=O)O)C(=O)O)cc3)nc2c(=O)[nH]1` (stereo unspecified), the TGI in the experiment with MALME-3M melanoma, with NCI-H522 lung, with OVCAR-4 ovarian, with OVCAR-5 ovarian, in the experiment with SR leukemia and in the experiment with U251 CNS was more than 100 µM in each case. The compound also displayed a TGI in the experiment on UO-31 renal of more than 100 µM.

Take `N#Cc1c(-c2ccc(Cl)cc2)[nH]c(=O)n(C2OC(CO)C(O)C(O)C2O)c1=O` (stereo unspecified): the TGI in the experiment with HOP-92 NSCLC, with NCI-H522 lung, in the experiment on OVCAR-4 ovarian, with OVCAR-5 ovarian, with U251 CNS and with UO-31 renal was more than 100 µM each time.

Regarding `O=C(CN1CCOCC1)c1ccc2c(c1)oc(=O)n2CCN1CCOCC1`, the TGI with MALME-3M melanoma, in the experiment with OVCAR-5 ovarian, in the experiment on SR leukemia and in the experiment on U251 CNS was more than 100 µM in each case.

As for `O=c1[nH]nc(-c2ccccc2)n1/N=C/c1cccs1`, the TGI is more than 100 µM with MALME-3M melanoma; 62 µM in the experiment on OVCAR-4 ovarian; more than 100 µM in the experiment on OVCAR-5 ovarian; more than 100 µM in the experiment on U251 CNS; more than 100 µM in the experiment on UO-31 renal.

Regarding `COc1ccc(N2C(=O)C3c4[nH]c5ccc(Br)cc5c4C4CCC(C(C)(C)C)CC4C3C2=O)cc1` (stereo unspecified), the TGI with MALME-3M melanoma, in the experiment with NCI-H522 lung, in the experiment with OVCAR-4 ovarian, with OVCAR-5 ovarian, in the experiment on SR leukemia and in the experiment with U251 CNS was more than 100 µM in each case.

As for `CCOC(=O)c1cc2/c(=C\c3ccc(N(C)C)cc3)c3ccccc3n2[n+]1C`, the TGI with HOP-92 NSCLC amounted to 14.9 µM; with OVCAR-4 ovarian, 13.7 µM; in the experiment with OVCAR-5 ovarian it was 20.4 µM; with U251 CNS it was 11.8 µM; in the experiment with UO-31 renal, 19.3 µM.

In the case of `CC(C)[C@H](NC(=O)[C@H](N)Cc1ccc(N(CCCl)CCCl)cc1)C(=O)O`, the TGI in the experiment with HOP-92 NSCLC, in the experiment on MALME-3M melanoma, in the experiment on NCI-H522 lung, in the experiment with OVCAR-4 ovarian, in the experiment on OVCAR-5 ovarian and in the experiment with U251 CNS was more than 100 µM each time. Further, the TGI in the experiment with UO-31 renal was more than 100 µM.

As to `CC1SCc2nc3ccccc3n21` (stereo unspecified), the TGI in the experiment on HOP-92 NSCLC, with MALME-3M melanoma, in the experiment on NCI-H522 lung, in the experiment on OVCAR-4 ovarian, with OVCAR-5 ovarian and in the experiment on U251 CNS was more than 100 µM each time. The same compound yielded a TGI in the experiment with UO-31 renal of more than 100 µM.

As for `N#CC(=N)c1ncn(-c2ccc(N)cc2)c1N`, the TGI with MALME-3M melanoma, in the experiment with NCI-H522 lung, with OVCAR-4 ovarian, with OVCAR-5 ovarian, in the experiment with SR leukemia and with U251 CNS was more than 100 µM each time. This compound displayed a TGI with UO-31 renal of more than 100 µM.

For `COc1cc(C2c3cc4c(cc3OC(NNS(=O)(=O)c3ccc(C)cc3)C2C)OCO4)cc(OC)c1O` (stereo unspecified), the TGI in the experiment with HOP-92 NSCLC was 54.8 µM; with MALME-3M melanoma it was 25 µM; in the experiment with NCI-H522 lung, 69.1 µM; in the experiment with OVCAR-4 ovarian, 40.1 µM; with OVCAR-5 ovarian, more than 100 µM; in the experiment with U251 CNS, 27.8 µM.

`N#Cc1c(N2CCC(O)C2)c2ccccc2n2c1nc1ccccc12` (stereo unspecified): the TGI was 95.7 µM with HOP-92 NSCLC; more than 100 µM in the experiment on MALME-3M melanoma; more than 100 µM with NCI-H522 lung; more than 100 µM in the experiment with OVCAR-4 ovarian; more than 100 µM in the experiment with OVCAR-5 ovarian; more than 100 µM in the experiment on UO-31 renal.

Take `NC(=O)NCCCC(NC(=O)OCCCCCCn1ccc(=O)[nH]c1=O)C(=O)O` (stereo unspecified): the TGI in the experiment on HOP-92 NSCLC, in the experiment with OVCAR-4 ovarian, in the experiment on OVCAR-5 ovarian, in the experiment with SR leukemia, with U251 CNS and in the experiment on UO-31 renal was more than 100 µM in each case.

As to `CCOC(=O)C1=NN(c2ccc([N+](=O)[O-])cc2)[C@@]2(C)C[C@]3(c4ccccc4)N(c4ccc([N+](=O)[O-])cc4)N=C(C(=O)OCC)N3c3ccccc3N12`, the TGI in the experiment with MALME-3M melanoma, in the experiment on NCI-H522 lung, with OVCAR-4 ovarian, with OVCAR-5 ovarian, in the experiment with SR leukemia and in the experiment with U251 CNS was more than 100 µM each time. The same compound came in with a TGI in the experiment with UO-31 renal of more than 100 µM.

Regarding `CC(=O)OCC1OC(n2c(-c3ccccc3)c(C(C)=O)c(-c3cccc4ccccc34)c(C#N)c2=S)C(OC(C)=O)C(OC(C)=O)C1OC(C)=O` (stereo unspecified), the TGI in the experiment with MALME-3M melanoma, with NCI-H522 lung, in the experiment on OVCAR-4 ovarian, in the experiment on OVCAR-5 ovarian, in the experiment with SR leukemia and in the experiment on U251 CNS was more than 100 µM throughout. This compound returned a TGI in the experiment with UO-31 renal of 0.0252 µM.

In the case of `N#CC(Cc1ccccc1)N(CCC1=CCCCC1)Cc1ccccc1` (stereo unspecified), the TGI in the experiment with HOP-92 NSCLC is more than 100 µM; with MALME-3M melanoma, more than 100 µM; in the experiment on NCI-H522 lung, 68 µM; in the experiment with OVCAR-4 ovarian, more than 100 µM; with OVCAR-5 ovarian it was more than 100 µM; in the experiment with U251 CNS, more than 100 µM. The TGI in the experiment with UO-31 renal is more than 100 µM.

Take `O=c1[nH]nc(Cc2c[nH]c3ccccc23)o1`: the TGI in the experiment with HOP-92 NSCLC, with MALME-3M melanoma, with NCI-H522 lung, in the experiment on OVCAR-4 ovarian, with OVCAR-5 ovarian and in the experiment with U251 CNS was more than 100 µM each time. The compound also had a TGI in the experiment with UO-31 renal of more than 100 µM.

Consider `CCOc1ccc(N/C(=C(/C(Cl)=C(/Cl)N2CCCCC2)[N+](=O)[O-])n2nnc3ccccc32)cc1`, for which the TGI amounted to 42 µM in the experiment with HOP-92 NSCLC; 39.6 µM in the experiment with MALME-3M melanoma; 22 µM in the experiment on NCI-H522 lung; 32.5 µM in the experiment with OVCAR-5 ovarian; 30.8 µM in the experiment on U251 CNS; 4.17 µM in the experiment on UO-31 renal.

As for `CCCCCCCCCCCCCCCCCCNC(=S)/N=C\C1=C(O)c2ccccc2C1=O`, the TGI is 14.1 µM in the experiment with HOP-92 NSCLC; 28.1 µM in the experiment on MALME-3M melanoma; 26.9 µM in the experiment with OVCAR-5 ovarian; 18.3 µM with U251 CNS; 23.3 µM with UO-31 renal.

Regarding `COc1cc(/C=N/n2c(-c3ccccc3)nn(C(C)=O)c2=O)cc(OC)c1OC`, the TGI is more than 89.7 µM with HOP-92 NSCLC; more than 46.6 µM in the experiment with MALME-3M melanoma; 8.56 µM in the experiment on NCI-H522 lung; more than 100 µM with OVCAR-4 ovarian; more than 92.6 µM with OVCAR-5 ovarian; more than 44.6 µM in the experiment with U251 CNS. The compound also returned a TGI in the experiment with UO-31 renal of 54.4 µM.

For the compound `O=C(O)CCSCc1ccccc1`, the TGI with MALME-3M melanoma, with NCI-H522 lung, in the experiment with OVCAR-4 ovarian, in the experiment on OVCAR-5 ovarian, with U251 CNS and in the experiment on UO-31 renal was more than 100 µM each time.

In the case of `COc1ccc(/C=C2\CCS(=O)(=O)c3ccccc3C2=O)cc1`, the TGI in the experiment on HOP-92 NSCLC is 71.7 µM; in the experiment on OVCAR-4 ovarian, 58.8 µM; with OVCAR-5 ovarian it was more than 100 µM; with SR leukemia, 40.5 µM; with U251 CNS, 37.7 µM; in the experiment with UO-31 renal, 38 µM.

Turning to `Cc1cccc2c1c(=O)c1c(O)c3c(cc1n2C)OC(C)(C)C=C3`, the TGI with MALME-3M melanoma, with NCI-H522 lung, with OVCAR-4 ovarian, with OVCAR-5 ovarian, in the experiment on SR leukemia and in the experiment with U251 CNS was more than 10 µM each time.

As to `S=C1CCSc2c(ccc3ccccc23)N1`, the TGI in the experiment with MALME-3M melanoma, in the experiment on NCI-H522 lung, with OVCAR-4 ovarian, with OVCAR-5 ovarian, with SR leukemia and in the experiment with U251 CNS was more than 100 µM in each case. For the same compound, the TGI in the experiment with UO-31 renal was more than 100 µM.

In the case of `CCOC(=O)C(Cc1ccc(OC(=O)c2ccc(OC)cc2)cc1)NC(=O)C(F)(F)F` (stereo unspecified), the TGI with HOP-92 NSCLC, with MALME-3M melanoma, with NCI-H522 lung, in the experiment on OVCAR-4 ovarian, with OVCAR-5 ovarian and in the experiment on U251 CNS was more than 100 µM throughout. Also, the TGI in the experiment with UO-31 renal is more than 100 µM.

Consider `COC(O)C(=O)c1ccc2c(c1)CC1(C2)Cc2cc3c(cc2C1=O)CCC3` (stereo unspecified), for which the TGI in the experiment with MALME-3M melanoma came out at 36.1 µM; in the experiment on NCI-H522 lung, 35.7 µM; with OVCAR-4 ovarian, 30.4 µM; in the experiment on OVCAR-5 ovarian it was 52.3 µM; in the experiment on U251 CNS, 35.5 µM; in the experiment with UO-31 renal it was 30.5 µM.

As to `CCOC(=O)C1=CCOc2cc(N(C)C)ccc21`, the TGI in the experiment with MALME-3M melanoma, in the experiment on NCI-H522 lung, in the experiment with SR leukemia, in the experiment on U251 CNS and in the experiment with UO-31 renal was more than 100 µM throughout.

Consider `CC(=O)Nc1ccc2c3c(cc(O)c2c1)N(C(=O)CCCCCCC(=O)N1CC(CCl)c2c1cc(O)c1cc(NC(C)=O)ccc21)CC3CCl` (stereo unspecified), for which the TGI in the experiment with MALME-3M melanoma is 0.0233 µM; in the experiment on NCI-H522 lung it was 0.0695 µM; in the experiment with OVCAR-4 ovarian, more than 100 µM; with OVCAR-5 ovarian, 0.243 µM.

With `Cc1ccc(S(=O)(=O)Oc2nc3ccccc3nc2OS(=O)(=O)c2ccc(C)cc2)cc1`, the TGI was 35 µM in the experiment with MALME-3M melanoma; 49.9 µM with NCI-H522 lung; more than 100 µM in the experiment with OVCAR-5 ovarian; more than 100 µM with SR leukemia; more than 100 µM in the experiment on U251 CNS; more than 100 µM in the experiment on UO-31 renal.

(Values after PubChem BioAssay (NCI).)
